Patent publication US20060016765A1, “Water treatment” (priority 2004, published 2006)
Where “and” joins values, the source holds several entries; their conditions need not be identical. Equal values may be shown once. Read-outs that look alike come from different tables or passages of the source.

Assays:
Assay type in all cases: cell-based
[1] = system: Salmonella choleraesuis ATCC 10708
[2] = system: Staphylococcus aureus ATCC 6538; assay: Microbial efficacy, modified AOAC 965.13, serial-dilution plate count
[3] = system: Pseudomonas aeruginosa ATCC 15442; assay: as above
[4] = system: Aspergillus fumigatus ATCC 1098; assay: Fungicidal activity, modified AOAC Method 955.17, spore kill; conditions: for reduction of the fungal bioburden: solutions equivalent to amounts found in the tablet solution
Procedure: This assay had several modifications from the published AOAC Fungicidal Activity of Disinfectants Protocol, Method 955.17. Aspergillus fumigatus ATCC 1098 was grown on Malt Extract Agar (available from Becton Dickinson, Billerica, Mass.) plates, and spores were harvested. Spores were stored in filter-sterilized Millipore water at −20° C. The spore preparation used for this experiment is detailed below. A freezer stock of A. fumigatus was defrosted and diluted to obtain an inoculum suspension for this experiment. […] The following test solutions were prepared using filter-sterilized MILLIPORE water in steam-sterilized 4 L bottles:
Water Control: (filter-sterilized water only), pH 6.28.
OXONE Control: 3.78 g OXONE in 1 gallon (about 3.8 liters) sterile water, buffered to pH 4.43 using 0.98 g NaHCO3 and 5.25 g 10% H2SO4.
Chlorite Control: 0.26 g of sodium chlorite in 1-gallon sterile water buffered to pH 4.55 (1.8 g 10% H2SO4).
Buffer Control: sodium bicarbonate, pH adjusted to 4.4.
Chlorine Dioxide: Anthium Dioxide (stabilized sodium chlorite available from IDI, North Kingston, R1) was acidified with HCl.
CLOROX control: 4.17% (v/v) CLOROX bleach available from Clorox Company, Oakland, Calif. (v/v) in MILLIPORE water by mixing 4.17 ml of Clorox bleach and water up to 100 ml total volume.
Reaction tubes: 5 ml of each test solution was aliquoted into 25×150 mm test culture tubes, capped and labeled according to Table 6. 9 ml of D/E (Dey/Engley) Neutralizing Broth (available from Becton Dickinson, Billerica, Mass.) was added to each of 28 test tubes and the tubes were capped. Butterfield buffer blanks were arranged for dilution of neutralized samples, and Malt Extract Agar plates were numbered for spore enumerations of the diluted, neutralized samples. With a graduated pipette, 0.5 ml of spore inoculum (about […]) was added to the first tube of test solution and gently shaken. After 5- and 15-minute exposures to the respective test solutions, samples were gently shaken and 1 ml samples were removed from each reaction mixture (spore-test solution) using an Eppendorf pipette and placed in 9 ml D/E (Dey/Engley) Neutralizing Broth. The inoculum was further diluted to approximately 10^4 condia/ml. Two more reaction tubes (water and OXONE-chlorite) and four Dey/Engley neutralization tubes were prepared to evaluate the efficacy of the tablet solution versus a final inoculum density of 10^4 condia/ml in the reaction tube. Samples were reacted for 15 minutes only. Dilutions of neutralized samples were prepared. Two 100 μl aliquots of all samples in D/E (Dey/Engley) Neutralizing Broth were plated on Malt Extract Agar and incubated at 25° C. until the appearance of colonies. Plates were counted after colonies appeared, roughly 4 days after incubation. Several dilutions of the inoculum spore suspensions were also plated on Malt Extract Agar to obtain an accurate count of viable spores used as inoculum. The samples were incubated at 25° C. and counted after the appearance of colonies, after about 4 days of incubation.
Buffer control data was taken after 15 minutes. CLOROX control data was taken after 5 minutes of treatment.

[5] = 30 sec exposure, Example 11 = 1,008 ppm Oxone + 55.5 ppm Chlorite, controls 1,008 ppm Oxone, 55.5 ppm Chlorite, 23.2 ppm ClO2
[6] = 30 sec exposure, Example 11 = 1,008 ppm Oxone + 55.5 ppm Chlorite, controls 1,008 ppm Oxone, 55.5 ppm Chlorite, 23.2 ppm ClO2, low level of detection 1.0E+01 CFU/mL
[7] = 10 min exposure, Example 11 = 1,008 ppm Oxone + 55.5 ppm Chlorite, controls 1,008 ppm Oxone, 55.5 ppm Chlorite, 23.2 ppm ClO2
[8] = 10 min exposure, Example 11 = 1,008 ppm Oxone + 55.5 ppm Chlorite, controls 1,008 ppm Oxone, 55.5 ppm Chlorite, 23.2 ppm ClO2, low level of detection 1.0E+01 CFU/mL

| Compound | CFU/ml [1] | Δt (log difference test and control densities) [2, 5] | CFU/ml [2, 6] | Δt (log difference test and control densities) [2, 7] | CFU/ml [2, 8] | Δt (log difference test and control densities) [3, 5] | CFU/ml [3, 6] | Δt (log difference test and control densities) [3, 7] | CFU/ml [3, 8] | Surviving Bioburden Counts (germinating spores, conidia/ml) ([4]; 5 min, 2 replicates average) | Surviving Bioburden Counts (germinating spores, conidia/ml) ([4]; 15 min, 2 replicates average) | reduction of the fungal bioburden [4] | reduction of the bioburden within 15 minutes of treatment [4] | other results |
| --- | --- | --- | --- | --- | --- | --- | --- | --- | --- | --- | --- | --- | --- | --- |
| [O][Cl+][O-] [ClO2 control, chlorine dioxide] | 1.00E + 01 CFU/ml | – | – | – | – | – | – | – | – | – | – | – | – | Δt (log difference test and control densities) [1]: 5.1 log and 5.3 log; CFU/ml [2]: 1.00E + 01 CFU/ml; Δt (log difference test and control densities) [2]: 5.1 log and 5.2 log; CFU/ml [3]: 1.00E + 01 CFU/ml; Δt (log difference test and control densities) [3]: 5 log and 5.0 log and 5.1 log; Surviving Bioburden Counts (germinating spores, conidia/ml) [4]: 0.00E + 00 conidia/ml; kill of A. fumigatus spores within 5 minutes [4]: 5 log |
| triple salt of potassium monopersulfate, potassium hydrogen sulfate and potassium sulfate [Oxone control] | 2.95E + 03 CFU/ml and 2.14E + 06 CFU/ml | 0.0 log | 1.52E + 06 CFU/ml | 0.4 log | 6.15E + 05 CFU/ml | 0.0 log | 9.50E + 05 CFU/ml | 5.1 log | 1.00E + 01 CFU/ml | 3.45E + 05 conidia/ml | 5.70E + 05 conidia/ml | ineffective in reducing the fungal bioburden | not able to reduce the bioburden | – |
| sodium chlorite [Chlorite control] | – | 0.0 log | 1.23E + 06 CFU/ml | 0.1 log | 1.20E + 06 CFU/ml | −0.1 log | 1.17E + 06 CFU/ml | 0.0 log | 1.21E + 06 CFU/ml | 4.25E + 05 conidia/ml | 6.25E + 05 conidia/ml | ineffective in reducing the fungal bioburden | not able to reduce the bioburden | Δt (log difference test and control densities) [1, 5]: −0.3 log; CFU/ml [1, 6]: 3.09E + 06 CFU/ml; Δt (log difference test and control densities) [1, 7]: 0.2 log; CFU/ml [1, 8]: 1.27E + 06 CFU/ml |
